Test system: 349418-098-R-PDC complex spheroid growth
Experiment: Anticancer human tumor 349418-098-R-PDC patient-derived lung adenocarcinoma cell line growth inhibition [AhR]
Settings: for IC50: curve of first compound; for viability, T/C: stronger effect = lower value
Method in brief: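 Agents were dosed in half-log steps down from roughly clinical Cmax, or from 10 microM where Cmax was unknown, alone and with AhR antagonists. Read-out: percent test/control growth of tumor spheroids containing HUVEC and MSC stromal cells.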

[1] = second compound 0.1 µM, first compound 0.0316 µM
[2] = second compound 0.1 µM, first compound 0.1 µM
[3] = second compound 0.1 µM, first compound 0.316 µM
[4] = second compound 0.1 µM, first compound 1 µM
[5] = second compound 0.316 µM, first compound 0.0316 µM
[6] = second compound 0.316 µM, first compound 0.1 µM
[7] = second compound 0.316 µM, first compound 0.316 µM
[8] = second compound 0.316 µM, first compound 1 µM
[9] = second compound 1 µM, first compound 0.0316 µM
[10] = second compound 1 µM, first compound 0.1 µM
[11] = second compound 1 µM, first compound 0.316 µM
[12] = second compound 1 µM, first compound 1 µM
[13] = second compound 3.16 µM, first compound 0.0316 µM
[14] = second compound 3.16 µM, first compound 0.1 µM
[15] = second compound 3.16 µM, first compound 0.316 µM
[16] = second compound 3.16 µM, first compound 1 µM
[17] = second compound 10 µM, first compound 0.0316 µM
[18] = second compound 10 µM, first compound 0.1 µM
[19] = second compound 10 µM, first compound 0.316 µM
[20] = second compound 10 µM, first compound 1 µM
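Further: spheroids exposed to agents for seven days before luminescence viability read.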
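Wherever viability, T/C is given: spheroids also contain HUVEC endothelial cells and human MSC stroma.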

Row | IC50 (second compound 0.1 µM) | IC50 (second compound 0.316 µM) | IC50 (second compound 1 µM) | IC50 (second compound 3.16 µM) | IC50 (second compound 10 µM) | Structure (SMILES) | viability, T/C [1] | viability, T/C [2] | viability, T/C [3] | viability, T/C [4] | viability, T/C [5] | viability, T/C [6] | viability, T/C [7] | viability, T/C [8] | viability, T/C [9] | viability, T/C [10] | viability, T/C [11] | viability, T/C [12] | viability, T/C [13] | viability, T/C [14] | viability, T/C [15] | other results
1 | 79.1 nM | 68.8 nM | 82.3 nM | 67.4 nM | 52.9 nM | CC1COCCN1c1cc(-c2ccnn2C)c2ccnc(-c3ccn[nH]3)c2n1 (stereo not given) + CC(CO)NC(=O)c1cc(-c2ccc(Cl)cc2)nn(-c2cnn(C)c2)c1=O | 81.9% | 41.9% | 14.2% | 10.3% | 89.1% | 31.2% | 15.8% | 9.1% | 91.6% | 42.2% | 16.6% | 10.9% | 85.3% | 32.8% | 15.8% | viability, T/C (second compound 0.1 µM, first compound 0.00316 µM): 90.3%; viability, T/C (second compound 0.1 µM, first compound 0.01 µM): 99.2%; viability, T/C (second compound 0.316 µM, first compound 0.00316 µM): 87.4%; viability, T/C (second compound 0.316 µM, first compound 0.01 µM): 92.3%; viability, T/C (second compound 1 µM, first compound 0.00316 µM): 112%; viability, T/C (second compound 1 µM, first compound 0.01 µM): 128%; viability, T/C (second compound 3.16 µM, first compound 0.00316 µM): 67.7%; viability, T/C (second compound 3.16 µM, first compound 0.01 µM): 96.1%; viability, T/C [16]: 12%; viability, T/C (second compound 10 µM, first compound 0.00316 µM): 62.8%; viability, T/C (second compound 10 µM, first compound 0.01 µM): 94%; viability, T/C [17]: 69.1%; viability, T/C [18]: 25.2%; viability, T/C [19]: 14.2%; viability, T/C [20]: 10.1%
2 | 1530 nM | 1710 nM | 1410 nM | 750 nM | 1270 nM | CC1COCCN1c1cc(C2(S(C)(=N)=O)CC2)nc(-c2ccnc3[nH]ccc23)n1 (stereo not given) + CC(CO)NC(=O)c1cc(-c2ccc(Cl)cc2)nn(-c2cnn(C)c2)c1=O | 84.5% | 71.8% | 69.6% | 65.7% | 70% | 80.7% | 66.8% | 73.2% | 67.6% | 89.1% | 85.2% | 59% | 83.9% | 55.9% | 78.9% | viability, T/C (second compound 0.1 µM, first compound 3.16 µM): 24.4%; viability, T/C (second compound 0.1 µM, first compound 10 µM): 12.5%; viability, T/C (second compound 0.316 µM, first compound 3.16 µM): 24.2%; viability, T/C (second compound 0.316 µM, first compound 10 µM): 10.4%; viability, T/C (second compound 1 µM, first compound 3.16 µM): 25.7%; viability, T/C (second compound 1 µM, first compound 10 µM): 12.5%; viability, T/C [16]: 42.4%; viability, T/C (second compound 3.16 µM, first compound 3.16 µM): 21.4%; viability, T/C (second compound 3.16 µM, first compound 10 µM): 13.4%; viability, T/C [17]: 59.1%; viability, T/C [18]: 56.9%; viability, T/C [19]: 59.8%; viability, T/C [20]: 57.7%; viability, T/C (second compound 10 µM, first compound 3.16 µM): 20.2%; viability, T/C (second compound 10 µM, first compound 10 µM): 11.7%

From PubChem BioAssay AID1918996 (Molecular Pharmacology Branch, DTP, NCI, 2023)
